Measurements from US6303591A, “21-hydroxy-6,19-oxidoprogesterone (21OH-6OP) and its use as medicament for treating excess of glucocorticoids” (Applied Research Systems ARS Holding NV, priority 1997, dated 2001).

Assays:
[1] = biological target: T1, uterus PR (progesterone receptor) (Rattus norvegicus, UniProt Q63449); test: (^3 H)-P4 binding to uterus cytosols (PR); details: uterus cytosol, 12 h at 0° C., 1 μM cortisol
T1 sequence (Q63449 1-923): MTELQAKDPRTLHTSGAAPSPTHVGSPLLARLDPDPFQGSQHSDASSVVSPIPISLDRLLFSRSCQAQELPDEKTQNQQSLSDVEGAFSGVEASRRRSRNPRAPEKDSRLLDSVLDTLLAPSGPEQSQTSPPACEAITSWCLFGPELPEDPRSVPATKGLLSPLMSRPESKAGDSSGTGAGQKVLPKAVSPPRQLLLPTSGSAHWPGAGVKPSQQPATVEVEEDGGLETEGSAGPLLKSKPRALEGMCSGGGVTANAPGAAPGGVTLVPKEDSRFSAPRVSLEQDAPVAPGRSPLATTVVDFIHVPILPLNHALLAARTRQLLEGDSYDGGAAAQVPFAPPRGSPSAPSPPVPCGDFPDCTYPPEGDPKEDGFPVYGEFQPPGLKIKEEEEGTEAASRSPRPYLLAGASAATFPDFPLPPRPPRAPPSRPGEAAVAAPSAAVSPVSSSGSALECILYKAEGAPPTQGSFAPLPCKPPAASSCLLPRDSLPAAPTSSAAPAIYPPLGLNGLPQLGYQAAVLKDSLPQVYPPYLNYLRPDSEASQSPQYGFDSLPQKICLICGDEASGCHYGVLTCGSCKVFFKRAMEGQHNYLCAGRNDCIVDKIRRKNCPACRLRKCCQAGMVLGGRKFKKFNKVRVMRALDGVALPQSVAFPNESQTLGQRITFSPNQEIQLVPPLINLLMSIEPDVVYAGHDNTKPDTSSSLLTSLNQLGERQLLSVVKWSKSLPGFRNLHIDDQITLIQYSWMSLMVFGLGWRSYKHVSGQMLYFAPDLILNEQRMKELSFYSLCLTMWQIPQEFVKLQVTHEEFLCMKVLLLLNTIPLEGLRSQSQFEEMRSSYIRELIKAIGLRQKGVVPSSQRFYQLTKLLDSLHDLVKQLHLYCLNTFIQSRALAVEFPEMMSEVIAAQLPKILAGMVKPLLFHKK
Experimental: Binding Assay: Adrenalectomized male Sprague-Dawley rats were bled to death by heart puncture. Cold 0.9% NaCI was injected profusely through the aorta until organs were completely blanched. Thymuses were used as a source of GR and kidneys as a source of MR. Homogenization and incubation conditions were performed as previously described, (14) and (15), respectively. Briefly, homogenates performed in cold TEGM buffer at pH 7.4 (0.1 M Tris-HCl, 10 mM EDTA, 10 mM α-mercaptoethanol, 20 mM Na2 MoO4, 25% glycerol, 0.1 mM PMSF, 2.0 TIU/ml aprotinin and 1 mg% Leupeptin) were centrifuged at 37,000 rev. for 30 min at 0° C. Supernatants from this centrifugation are referred to as "cytosol". […] (^3 H)-P4 binding to uterus PR was assayed on immature female rats according to Jordan et al (16).
Relative binding affinity (RBA) for partially purified CBG was determined by steroid competition for (^3 H)-B binding as described previously (14).

MR = details: background; cited from earlier work
GR = details: background; cited from earlier work

In the case of `CC(=O)[C@H]1CC[C@H]2[C@@H]3CCC4=CC(=O)CC[C@]4(C)[C@H]3CC[C@]12C` [P4, progesterone], the “displacement of (^3 H)-P4 from uterus receptors / cross-reaction with PR” value [1] is listed as “able to displace the tracer efficiently”, the “cross-reaction with MR” value (MR) is listed as “exhibits cross-reaction with both MR and GR” and the “cross-reaction with GR” value (GR) is listed as “exhibits cross-reaction with both MR and GR”.
